The source of these data is paper PMC12511262 (European Journal of Clinical Pharmacology, 2025).

Where two headings read alike, the source gives them in different places.

Data set [1] can be described thus: Population pharmacokinetic model of quizartinib (NONMEM v7.5) applied to the external evaluation dataset. Type of data set: in vivo, human. The settings on record: popPK estimates. An excerpt: Parameter values and covariate relationships were fixed according to those reported in the original publication, without any re-estimation or modification. Key model parameters were described at Table 2: Predictions were generated using recorded doses, sampling times, and covariate values from the evaluation dataset.

The conditions of data set [2]: single oral dose of 60 mg [14C]-quizartinib, six healthy men; cited from earlier work.
Where [3] appears, read: FLT3-ITD negative AML patients, steady state.

On to `CC(C)(C)c1cc(NC(=O)Nc2ccc(-c3cn4c(n3)sc3cc(OCCN5CCOCC5)ccc34)cc2)no1` [quizartinib], for which the bioavailability in data set [1] (human, plasma, oral, FLT3-ITD negative AML patients, steady state, read-out: F1 Bioavailability, Mean) was 77%. In addition, in data set [1] (human, plasma, oral, FLT3-ITD negative AML patients, steady state, read-out: F1 Bioavailability, Median), the bioavailability is 75%. Also, in data set [1] (human, plasma, oral, FLT3-ITD negative AML patients, steady state, read-out: V2 Volume of distribution (central compartment), Mean), the Vd is 219 L. Further, in data set [1] (human, plasma, oral, FLT3-ITD negative AML patients, steady state, read-out: V2 Volume of distribution (central compartment), Median), the Vd was 227 L. In data set [1] (human, plasma, oral, FLT3-ITD negative AML patients, steady state, read-out: t1/2 Half-life, Mean (converted)), the half-life is 82.4 h. Besides, the half-life in data set [1] (human, plasma, oral, FLT3-ITD negative AML patients, steady state, read-out: t1/2 Half-life, Median (converted)) is 82.5 h. Moreover, the bioavailability in data set [1] (human, plasma, oral, median, read-out: bioavailability factor (F1), median) is 75%. Besides, the clearance in data set [1] (human, plasma, oral, median, read-out: median clearance (CL) (converted)) was 29.3 mL/min. In addition, in data set [1] (setting [3]), the “CL Clearance, Median” value was 1.76; the “KA Absorption rate constant, Mean” value is listed as 1.68; the “KA Absorption rate constant, Median” value is given as 1.68; the “KE Elimination rate constant, Mean” value is listed as 0.01. Also, the “KE Elimination rate constant, Median” value in data set [1] (setting [3]) is 0.01. Moreover, the “CL Clearance, Mean” value in data set [1] (FLT3-ITD negative AML patients, steady state, oral quizartinib 30 mg daily with food (one patient 60 mg)) is 1.97. Also, in data set [1] (median), the “V3 (peripheral compartment), median” value is recorded as 176.03 L and the “V4, median” value is listed as 39.30 L. The “time of maximum blood concentration post-dosing” value in data set [2] is listed as “four”.

The term bioavailability denotes the share of a dose that reaches the circulation, judged against a reference dose that is usually intravenous.
